Assay results published in patent US9896441B2 (Lycera Corporation, priority 2014, dated 2018).

What was measured:
[1] = biological target: T1, RORγ-LBD (Homo sapiens, UniProt P51449); assay: RORγ-Ligand Binding Domain (LBD) TR-FRET Assay; format: biochemical; conditions: for TR-FRET Assay Max Response: maximum response;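 for TR-FRET Assay Max Response: 665/615 nm signal ratio set to 100 without ursolic acid or test compound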
T1 construct: made in house; host or cells: SF9 cells (baculovirus); used as diluted lysate
T1 sequence (P51449 269-508 limits assumed): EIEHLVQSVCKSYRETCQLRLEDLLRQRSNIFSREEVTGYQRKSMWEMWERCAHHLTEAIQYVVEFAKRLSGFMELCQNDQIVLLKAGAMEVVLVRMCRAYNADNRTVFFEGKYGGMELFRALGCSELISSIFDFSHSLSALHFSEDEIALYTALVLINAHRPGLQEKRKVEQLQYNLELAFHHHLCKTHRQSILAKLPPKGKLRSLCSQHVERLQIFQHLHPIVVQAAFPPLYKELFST
In short: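 This TR-FRET coactivator assay pairs baculovirus-expressed His-RORγ-LBD (~3 nM final) with biotin-SRC1 LXXLL peptide at 200 nM final in pH 7.0 Tris/KCl/EDTA/DTT/BSA buffer.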

[2] = biological target: T2, Gal4-RORγ-LBD (Homo sapiens, UniProt P51449); assay: Gal4-RORγ Luciferase Reporter Assay in HEK-293T Cells; format: cell-based; conditions: HEK-293 cells, luciferase reporter; for Gal4-RORγ Assay Max Response: maximum response
T2 construct: expressed in transfected cells
T2 sequence (P51449 269-508 limits assumed): T1 sequence (P51449 269-508 limits assumed)
In short: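 HEK-293 cells were co-transfected with Gal4-RORγ-LBD and a Gal4-luciferase reporter, then exposed overnight at 37 °C to compounds with […] ursolic acid present (0.2% DMSO). Luminescence was read with One-Glo after 10 min at RT, untreated signal was set as 100, and Max Response was taken as the upper plateau of a 4-parameter logistic fit.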

EC50 ([1]; RORγ-LBD TR-FRET) [nM] | EC50 ([2]; with ursolic acid) [nM] | EC50 ([1]; RORγ-LBD TR-FRET assay) [nM] | EC50 ([2]; in presence of ursolic acid) [nM] | Compound | TR-FRET Assay Max Response ([1]; RORγ-LBD TR-FRET assay) | Gal4-RORγ Assay Max Response ([2]; in presence of ursolic acid)
 |  | < 500 | < 500 | CCOc1ncc(C(F)(F)F)cc1S(=O)(=O)N1C[C@H](CCC(=O)N2CCC(C(=O)O)CC2)Oc2ccc(/C=C(\C)c3c(F)cccc3Cl)cc21 [Example 129L, (S,E)-1-(3-(6-(2-(2-chloro-6-fluorophenyl)-prop-1-en-1-yl)-4-((2-ethoxy-5-(trifluoro-methyl)pyridin-3-yl)sulfonyl)-3,4-dihydro-2H-benzo[b][1,4]oxazin-2-yl)propanoyl)-piperidine-4-carboxylic acid] | *** (a value in the range of greater than 150 to 200) | * (a value in the range of 30 to 90)
 |  | < 500 | < 500 | O=C(O)C1CCN(C(=O)CC[C@H]2CN(S(=O)(=O)c3cccc(C(F)(F)F)c3)c3cc(/C=C/c4c(F)cccc4Cl)ccc3O2)CC1 [Example 129O, (S,E)-1-(3-(6-(2-chloro-6-fluorostyryl)-4-((3-(trifluoromethyl)phenyl)sulfonyl)-3,4-dihydro-2H-benzo[b][1,4]oxazin-2-yl)propanoyl)piperidine-4-carboxylic acid] | *** (a value in the range of greater than 150 to 200) | ** (a value in the range of greater than 90 to 150)
 |  | < 500 | < 500 | C/C(=C\c1ccc2c(c1)C(S(=O)(=O)c1cccc(C(F)(F)F)c1)CC(CC(C)(C)C(=O)O)O2)c1c(F)cccc1Cl (stereo not shown) [Example 186N, (E)-3-(6-(2-(2-chloro-6-fluorophenyl)prop-1-en-1-yl)-4-((3-(trifluoromethyl)phenyl)-sulfonyl)chroman-2-yl)-2,2-dimethylpropanoic acid] | *** (a value in the range of greater than 150 to 200) | ** (a value in the range of greater than 90 to 150)
< 500 | 500 to 5000 |  |  | C[C@@H]1C/C(=C\c2ccc3c(c2)N(S(=O)(=O)c2cccc(C(F)(F)F)c2)C[C@H](CCC(=O)O)O3)C[C@H](C)C1 [Example 95Z, 3-((S)-6-((E)-((3R,5S)-3,5-dimethylcyclohexylidene)-methyl)-4-((3-(trifluoromethyl)-phenyl)sulfonyl)-3,4-dihydro-2H-benzo[b][1,4]oxazin-2-yl)propanoic acid] |  | 
 |  | < 500 | < 500 | C/C(=C\c1ccc2c(c1)N(S(=O)(=O)c1cccc(C(F)(F)F)c1)C[C@H](CCN1CCOCC1)O2)c1c(F)cccc1Cl [Example 119A, (S,E)-6-(2-(2-chloro-6-fluorophenyl)prop-1-en-1-yl)-2-(2-morpholinoethyl)-4-((3-(trifluoromethyl)phenyl)sulfonyl)-3,4-dihydro-2H-benzo[b][1,4]oxazine] | **** (a value greater than 200) | ** (a value in the range of greater than 90 to 150)
< 500 | 500 to 5000 |  |  | O=C(O)CC[C@H]1CN(S(=O)(=O)c2cccc(C(F)(F)F)c2)c2cc(/C=C3/CCCOC3)ccc2O1 [Example 95J, (S,Z)-3-(6-((dihydro-2H-pyran-3(4H)-ylidene)methyl)-4-((3-(trifluoromethyl)phenyl)sulfonyl)-3,4-dihydro-2H-benzo[b][1,4]oxazin-2-yl)propanoic acid] |  | 

Continued, compound first:

Compound | EC50 ([1]; RORγ-LBD TR-FRET) [nM] | EC50 ([2]; with ursolic acid) [nM] | EC50 ([1]; RORγ-LBD TR-FRET assay) [nM] | EC50 ([2]; in presence of ursolic acid) [nM] | TR-FRET Assay Max Response ([1]; RORγ-LBD TR-FRET assay) | Gal4-RORγ Assay Max Response ([2]; in presence of ursolic acid)
N#Cc1ccccc1/C=C/c1ccc2c(c1)N(S(=O)(=O)c1cccc(OC(F)F)c1)C[C@H](CCC(=O)O)O2 [Example 89AQ, (S,E)-3-(6-(2-cyanostyryl)-4-((3-(difluoromethoxy)phenyl)sulfonyl)-3,4-dihydro-2H-benzo[b][1,4]oxazin-2-yl)propanoic acid] | < 500 | 500 to 5000 |  |  |  | 
O=C(O)CC[C@H]1CN(S(=O)(=O)c2cccc(OC(F)F)c2)c2cc(/C=C/c3ncccc3Cl)ccc2O1 [Example 89DT, (S,E)-3-(6-(2-(3-chloropyridin-2-yl)vinyl)-4-((3-(difluoromethoxy)phenyl)sulfonyl)-3,4-dihydro-2H-benzo[b][1,4]-oxazin-2-yl)propanoic acid] | < 500 | 500 to 5000 |  |  |  | 
CCOc1nn(CC)cc1S(=O)(=O)N1C[C@H](CCC(=O)O)Oc2ccc(/C=C/c3c(C)cccc3F)cc21 [Example 89AG, (S,E)-3-(4-((3-ethoxy-1-ethyl-1H-pyrazol-4-yl)sulfonyl)-6-(2-fluoro-6-methylstyryl)-3,4-dihydro-2H-benzo[b][1,4]-oxazin-2-yl)propanoic acid] | < 500 | < 500 |  |  |  | 
C/C(=C\c1ccc2c(c1)N(S(=O)(=O)c1cccc(C(F)(F)F)c1)C[C@H](CCNS(C)(=O)=O)O2)c1c(F)cccc1Cl [Example 114, (S,E)-N-(2-(6-(2-(2-Chloro-6-fluorophenyl)prop-1-en-1-yl)-4-((3-(trifluoromethyl)phenyl)sulfonyl)-3,4-dihydro-2H-benzo[b][1,4]oxazin-2-yl)ethyl)methanesulfonamide] |  |  | < 500 | < 500 | *** (a value in the range of greater than 150 to 200) | ** (a value in the range of greater than 90 to 150)
C/C(=C\c1ccc2c(c1C)N(S(=O)(=O)c1cccc(C(F)(F)F)c1)C[C@H](CCC(=O)O)O2)c1c(F)cccc1Cl [Example 58, (S,E)-3-(6-(2-(2-Chloro-6-fluorophenyl)prop-1-en-1-yl)-5-methyl-4-((3-(trifluoromethyl)phenyl)sulfonyl)-3,4-dihydro-2H-benzo[b][1,4]oxazin-2-yl)propanoic acid] | < 500 | 500 to 5000 |  |  |  | 
CCOc1nn(CC)cc1S(=O)(=O)N1C[C@H](CCC(=O)OC)Oc2ccc(/C=C/c3c(Cl)cccc3C(F)F)cc21 [Example 89EI, methyl (S,E)-3-(6-(2-chloro-6-(difluoromethyl)styryl)-4-((3-ethoxy-1-ethyl-1H-pyrazol-4-yl)sulfonyl)-3,4-dihydro-2H-benzo[b][1,4]oxazin-2-yl)propanoate] | < 500 | < 500 |  |  |  | 
C/C(=C\c1ccc2c(c1)N(S(=O)(=O)c1cccc(C(F)(F)F)c1)C[C@H](CCCN1CCC(C(=O)O)CC1)O2)c1c(F)cccc1Cl [Example 123, (S,E)-1-(3-(6-(2-(2-Chloro-6-fluorophenyl)prop-1-en-1-yl)-4-((3-(trifluoromethyl)phenyl)sulfonyl)-3,4-dihydro-2H-benzo[b][1,4]oxazin-2-yl)propyl)piperidine-4-carboxylic acid] |  |  | < 500 | 500 to 5000 | ** (a value in the range of greater than 90 to 150) | ** (a value in the range of greater than 90 to 150)
O=C(O)CC[C@H]1CN(S(=O)(=O)c2cccc(OC(F)F)c2)c2cc(/C=C/c3c(F)cccc3C(F)(F)F)ccc2O1 [Example 89AI, (S,E)-3-(4-((3-(difluoromethoxy)phenyl)sulfonyl)-6-(2-fluoro-6-(trifluoromethyl)-styryl)-3,4-dihydro-2H-benzo[b][1,4]oxazin-2-yl)propanoic acid] | < 500 | 500 to 5000 |  |  |  | 
CCOc1nn(CC)cc1S(=O)(=O)N1C[C@H](CCC(=O)OC)Oc2ccc(/C=C/c3ccccc3OC(F)(F)F)cc21 [Example 89BB, (S,E)-methyl 3-(4-((3-ethoxy-1-ethyl-1H-pyrazol-4-yl)sulfonyl)-6-(2-(trifluoromethoxy)styryl)-3,4-dihydro-2H-benzo[b][1,4]-oxazin-2-yl)propanoate] | < 500 | 500 to 5000 |  |  |  | 
COC(=O)CC[C@H]1CN(S(=O)(=O)c2cccc(C(F)(F)F)c2)c2c(ccc(/C=C(\C)c3c(F)cccc3Cl)c2F)O1 [Example 61, Methyl (S,E)-3-(6-(2-(2-chloro-6-fluorophenyl)prop-1-en-1-yl)-5-fluoro-4-((3-(trifluoromethyl)phenyl)sulfonyl)-3,4-dihydro-2H-benzo[b][1,4]oxazin-2-yl)propanoate] | < 500 | 500 to 5000 |  |  |  | 
COC(=O)CC[C@H]1CN(S(=O)(=O)c2cccc(C(F)(F)F)c2)c2cc(C=C3CCCCC3)ccc2O1 [Example 90, Methyl (S)-3-(6-(cyclohexylidenemethyl)-4-((3-(trifluoromethyl)phenyl)sulfonyl)-3,4-dihydro-2H-benzo[b][1,4]oxazin-2-yl)propanoate] | < 500 | 500 to 5000 |  |  |  | 
CC(C)n1cnc(S(=O)(=O)N2C[C@H](CCC(=O)O)Oc3ccc(/C=C/c4c(F)cccc4Cl)cc32)c1 [Example 89DY, (S,E)-3-(6-(2-chloro-6-fluorostyryl)-4-((1-isopropyl-1H-imidazol-4-yl)sulfonyl)-3,4-dihydro-2H-benzo[b][1,4]-oxazin-2-yl)propanoic acid] | < 500 | 500 to 5000 |  |  |  | 
C/C(=C\c1ccc2c(c1)N(S(=O)(=O)c1cccc(C(F)(F)F)c1)C[C@H](CCN1CCC[C@H]1C(=O)O)O2)c1c(F)cccc1Cl [Example 124, (2-((S)-6-((E)-2-(2-Chloro-6-fluorophenyl)prop-1-en-1-yl)-4-((3-(trifluoromethyl)phenyl)sulfonyl)-3,4-dihydro-2H-benzo[b][1,4]oxazin-2-yl)ethyl)-L-proline] |  |  | < 500 | 500 to 5000 | *** (a value in the range of greater than 150 to 200) | ** (a value in the range of greater than 90 to 150)
